In US8895261B2, “Use of fluorescent saccharide-based derivative” (I-Shou University, priority 2012, dated 2014):

Tested on: fibroblast 3T3 cells
Assay: Cellular uptake of fluorescent saccharide-based derivative in fibroblast 3T3 cells (fluorescence microscopy)
Assay type: cell-based
Conditions: 100 μl of 0.5 mg/ml added to 3T3 cells, reacting overnight; FIG. 2G
Experimental: 1. Cultivate the fibroblast 3T3 cells in a DMEM medium (the DMEM medium contains 10% fetal bovine serum, 5 mM pyruvic acid, and antibiotics). The cells are cultivated in an incubator containing 5% CO2.
2. When the cells grow and occupy 80% of the bottom of the culture flask through cell division, suck out the culture medium and wash with 1×PBS, then add 0.05% trypsin to react for 1 minute in order to separate the cells, and add 5 ml culture medium, then centrifuge with […] for 10 minutes.
3. After centrifugation, remove the supernatant, then add 5 ml of culture medium, and evenly mix the cells and the culture medium. Take 30 μl of the cell solution and mix with 270 μl of trypan blue, then take 100 μl and place on a cytometer, and count the cell number using erythrocytomertry.
4. After counting the cells, adjust the cell number to 1×10^4 cells/ml, and take 1 ml of the cells and plant into a 24-well culture plate containing a glass slide, then place the cells in a cell incubator at 37° C. and 5% CO2. Incubate for 1 day, and then add 100 μl of 0.5 mg/ml glucosylglycine. After reacting overnight, wash twice with 1×PBS (10 minutes/turn).
5. Add 4% paraformaldehyde to the culture plate, and place in room temperature for twenty minutes to fix the cells, then remove the paraformaldehyde and wash 3 times with 1×PBS (10 minutes/turn).
6. […]

SMILES: O=C(O)CNC1O[C@H](CO)[C@@H](O)[C@H](O)[C@H]1O (stereo partly drawn) [glucosylglycine, D-glucosylglycine]
- cell uptake (cells emit fluorescence after being fed): uptakable by cells
